# Data from ChEMBL document CHEMBL1122101, “Synthesis and tissue distribution study of iodine-labeled benzyl- and xylylamines” (J Med Chem, 1982).
# Tests used:
# Rattus norvegicus [1] = assay: Evaluated for biodistribution in rat kidney after 1 min of administration; type: ADME, organism-based; details: in vivo
# Rattus norvegicus [2] = assay: Evaluated for biodistribution in rat kidney after 6 min of administration; type: ADME, organism-based; details: in vivo, 0.1 h
# Rattus norvegicus [3] = assay: Evaluated for biodistribution in rat thyroid after 1 min of administration; type: ADME, organism-based, Thyroid gland; details: in vivo
# Rattus norvegicus [4] = assay: Evaluated for biodistribution in rat blood after 2 min of administration; type: ADME, organism-based; details: in vivo
# Rattus norvegicus [5] = assay: Evaluated for biodistribution in rat heart after 6 min of administration; type: ADME, organism-based; details: in vivo, 0.1 h
# Rattus norvegicus [6] = assay: Evaluated for biodistribution in rat blood after 6 min of administration; type: ADME, organism-based; details: in vivo, 0.1 h
# Rattus norvegicus [7] = assay: Evaluated for biodistribution in rat thyroid after 2 min of administration; type: ADME, organism-based, Thyroid gland; details: in vivo
# Rattus norvegicus [8] = assay: Evaluated for biodistribution in rat lung after 6 min of administration; type: ADME, organism-based; details: in vivo, 0.1 h
# Rattus norvegicus [9] = assay: Evaluated for biodistribution in rat brain after 2 min of administration; type: ADME, organism-based; details: in vivo
# Rattus norvegicus [10] = assay: Evaluated for biodistribution in rat liver after 1 min of administration; type: ADME, organism-based; details: in vivo
# Rattus norvegicus [11] = assay: Evaluated for biodistribution in rat brain after 1 min of administration; type: ADME, organism-based; details: in vivo
# Rattus norvegicus [12] = assay: Evaluated for biodistribution in rat heart after 1 min of administration; type: ADME, organism-based; details: in vivo
# Rattus norvegicus [13] = assay: Evaluated for biodistribution in rat brain after 6 min of administration; type: ADME, organism-based; details: in vivo, 0.1 h
# Rattus norvegicus [14] = assay: Evaluated for biodistribution in rat liver after 6 min of administration; type: ADME, organism-based; details: in vivo, 0.1 h
# Rattus norvegicus [15] = assay: Evaluated for biodistribution in rat liver after 2 min of administration; type: ADME, organism-based; details: in vivo
# Rattus norvegicus [16] = assay: Evaluated for biodistribution in rat lung after 2 min of administration; type: ADME, organism-based; details: in vivo
# Rattus norvegicus [17] = assay: Evaluated for biodistribution in rat kidney after 2 min of administration; type: ADME, organism-based; details: in vivo
# Rattus norvegicus [18] = assay: Evaluated for biodistribution in rat lung after 1 min of administration; type: ADME, organism-based; details: in vivo
# Rattus norvegicus [19] = assay: Evaluated for biodistribution in rat thyroid after 6 min of administration; type: ADME, organism-based, Thyroid gland; details: in vivo, 0.1 h
# Rattus norvegicus [20] = assay: Evaluated for biodistribution in rat blood after 1 min of administration; type: ADME, organism-based; details: in vivo
# Rattus norvegicus [21] = assay: Evaluated for biodistribution in rat heart after 2 min of administration; type: ADME, organism-based; details: in vivo
# [22] = Evaluated for the carrier level on brain uptake at 0.4 mg/kg dose in rat; type: ADME, organism-based; parameters: dose 0.4 mg/kg; details: in vivo
# [23] = Evaluated for the carrier level on brain uptake at 4 mg/kg dose in rat; type: ADME, organism-based; parameters: dose 4 mg/kg; details: in vivo
# [24] = Evaluated for the carrier level on brain uptake at 0.04 mg/kg dose in rat; type: ADME, organism-based; parameters: dose 0.04 mg/kg; details: in vivo
# [25] = Evaluated for the carrier level on brain uptake at 40 mg/kg dose in rat; type: ADME, organism-based; parameters: dose 40 mg/kg; details: in vivo
Biodistribution (Rattus norvegicus [1]),Biodistribution (Rattus norvegicus [2]),Biodistribution (Rattus norvegicus [3]),Biodistribution (Rattus norvegicus [4]),Biodistribution (Rattus norvegicus [5]),Biodistribution (Rattus norvegicus [6]),Biodistribution (Rattus norvegicus [7]),Biodistribution (Rattus norvegicus [8]),Biodistribution (Rattus norvegicus [9]),Biodistribution (Rattus norvegicus [10]),Biodistribution (Rattus norvegicus [11]),Biodistribution (Rattus norvegicus [12]),Biodistribution (Rattus norvegicus [13]),Biodistribution (Rattus norvegicus [14]),Biodistribution (Rattus norvegicus [15]),Biodistribution (Rattus norvegicus [16]),Biodistribution (Rattus norvegicus [17]),Biodistribution (Rattus norvegicus [18]),Biodistribution (Rattus norvegicus [19]),Biodistribution (Rattus norvegicus [20]),SMILES,other results
6.71%,3.4%,0.27%,6.42%,0.83%,1.33%,0.18%,8.71%,0.62%,8.38%,0.64%,1.99%,0.59%,5.17%,10.22%,31.98%,6.93%,13.02%,0.45%,1.76%,CC(C)NCc1ccc(I)c(CNC(C)C)c1,Biodistribution (Rattus norvegicus [21]): 2.18%
6.19%,2.98%,0.11%,3.52%,0.19%,0.42%,0.28%,1.96%,2.4%,18.31%,2.36%,0.44%,1.51%,7.81%,9.52%,22.63%,7.69%,4.36%,0.14%,0.83%,CN(C)Cc1ccc(I)c(CN(C)C)c1,Brain uptake [22]: 3.03%; Brain uptake [23]: 2.09%; Brain uptake [24]: 2.67%; Brain uptake [25]: 2.43%; Biodistribution (Rattus norvegicus [21]): 2.76%
1.03%,0.34%,0.01%,7.01%,0.014%,0.35%,0.11%,0.04%,2.42%,1.92%,0.07%,0.06%,0.022%,0.45%,11.81%,2.9%,10.12%,0.19%,0.035%,1.35%,CN(C)Cc1ccccc1I,Biodistribution (Rattus norvegicus [21]): 0.59%
7.75%,1.97%,0.15%,4.11%,0.18%,0.77%,0.22%,1.75%,1.7%,13.51%,1.47%,0.51%,0.7%,9.2%,12.5%,26.54%,7.33%,6.65%,0.11%,1.6%,Ic1ccc(CN2CCCCC2)cc1CN1CCCCC1,Biodistribution (Rattus norvegicus [21]): 3.19%
